Literature values as cited in patent publication US20100055214A1, “METHOD FOR INCREASING BLOOD FLOW TO MAMMALIAN SKELETAL MUSCLE BY ADMINISTERING L-ARGNINE, CRATAEGUS EXTRACT, ARTICHOKE FLAVONOIDS AND GYMNOSTEMMA PENTAPHYLLUM EXTRACT” (H3 FORMULATIONS LTD., priority 2006, published 2010).

Details: in vivo

Structure (SMILES): N=C(N)NCCC[C@H](N)C(=O)O [L-arginine]
- NO production: increase
- aerobic exercise capacity: increase aerobic exercise capacity
